# According to article PMC6269736, “Antimalarial Activity of 4-Metoxychalcones: Docking Studies as Falcipain/Plasmepsin Inhibitors, ADMET and Lipophilic Efficiency Analysis to Identify a Putative Oral Lead Candidate” (Molecules, 2013):
# Where two headings read alike, the source gives them in different places.
# Tests used:
# [1] = test system: P. falciparum clone W2 (chloroquine-resistant); assay: In vitro antiplasmodial activity, Giemsa-stained smear parasitaemia after 48 h; assay type: cell-based, Plasmodium falciparum; conditions: for IC50: Plasmodium falciparum; for SI (selectivity index): SI = LC50 HeLa/IC50 Plasmodium falciparum
# Experimental: The human red blood cells and plasma were ceded by the Fundação Hemominas-Hemonúcleo Divinópolis. The synchronization of the parasites was achieved by sorbitol treatment and parasitaemia was determined microscopically in Giemsa-stained smears.
# Briefly, ring-stage parasites in sorbitol-synchronized blood cultures were added to 96-well culture plates with 2% parasitaemia and 2% haematocrit and then incubated with the test compounds. The compounds were diluted in complete media, from 10 mg/mL stock solutions in DMSO, at various concentrations (0.1–30 µM). After 48 h incubation, Giemsa-stained blood smears were taken for microscopic evaluation of parasitaemia. All experiments were performed in triplicate.
# in vitro = assay type: cell-based; conditions: human
# Experimental: The cytotoxicity of the compounds was assessed with the HeLa human cell line (cervix adenocarcinoma ATCC# CCl-2) using the MTT (3-(4,5-dimethylthiazol-2-yl)-2,5-diphenyltetrazolium bromide) (Sigma, St. Louis, MO, USA) colorimetric method. Briefly, the cells were plated in 96-well plates (1 × 10^5 cells/well) and incubated for 24 h at 37 °C in a humidified atmosphere with 5% CO2. After 24 h, the wells were washed with culture medium (RPMI + 10% inactivated fetal calf serum + 2 mM L-glutamine) and incubated with the compounds at various concentrations (0.05 to 500 µM). After 48 h incubation, the plates were treated with MTT. The colorimetric reading was performed in a microplate reader Spectramax M5e (Molecular Devices, Sunnyvale, CA, USA) at 550 nm. Cytotoxicity was scored as the percentage reduction in absorbance versus untreated control cultures. All experiments were performed in triplicate. […] The IC50 and LC50 values were calculated using OriginPro8.0 (OriginLab Corporation, Northampton, MA, USA) software. A selectivity index (SI), corresponding to the ratio between the cytotoxic and antiparasitic activities of each compound, was calculated as follows: SI = LC50 HeLa/IC50 Plasmodium falciparum
# [2] = P. falciparum W2, 48 h incubation, triplicate, mean ± spread, read-out: IC50, in vitro antiplasmodial activity
# [3] = P. falciparum W2, from IC50, read-out: pIC50 (converted)
Compound,"IC50 ([1]; W2, 48 h, read-out: IC50, in vitro antiplasmodial activity)","IC50 ([1]; W2, read-out: pIC50 (converted))","IC50 [1, 2]","IC50 [1, 3]",SI (selectivity index) [1],CC50 at 48 h (in vitro)
"CCN(CC)CCCC(C)Nc1ccnc2cc(Cl)ccc12 (centres unmarked) [CQ, chloroquine, reference compound]",0.45 ± 0.04 µM,0.454 µM,,,,
COc1ccc(/C=C/C(=O)c2ccccc2)cc1S(=O)(=O)N1CCOCC1 [Compound 1a],,,2.06 ± 0.05 µM,2.07 µM,9.0,18.6 ± 1.26 µM
COc1ccc(/C=C/C(=O)c2ccccc2)cc1S(=O)(=O)N(C)C [Compound 1b],,,5.79 ± 0.12 µM,5.79 µM,3.6,20.7 ± 1.62 µM
COc1ccc(/C=C/C(=O)c2ccccc2)cc1S(=O)(=O)Nc1ccccc1 [Compound 1c],,,2.03 ± 0.28 µM,2.03 µM,5.7,11.5 ± 0.23 µM
COc1ccc(NS(=O)(=O)c2cc(/C=C/C(=O)c3ccccc3)ccc2OC)cc1 [Compound 1d],,,3.64 ± 0.4 µM,3.64 µM,3.0,11.1 ± 1.96 µM
COc1ccc(/C=C/C(=O)c2ccccc2)cc1S(=O)(=O)Nc1ccc(Cl)cc1 [Compound 1e],,,2.83 ± 0.21 µM,2.82 µM,3.7,10.5 ± 2.27 µM
COc1ccc(/C=C/C(=O)c2ccccc2)cc1S(=O)(=O)Nc1ccc(Cl)c(Cl)c1 [Compound 1f],,,4.33 ± 0.06 µM,4.33 µM,4.4,19 ± 0.43 µM
CCN(CC)S(=O)(=O)c1cc(/C=C/C(=O)c2ccccc2)ccc1OC [Compound 1g],,,11 ± 0.57 µM,11 µM,1.9,20.7 ± 1.6 µM
COc1ccc(/C=C/C(=O)c2ccccc2)cc1S(=O)(=O)NCc1ccccc1 [Compound 1h],,,1.96 ± 0.02 µM,1.96 µM,4.8,9.42 ± 2.09 µM
COc1ccc(/C=C/C(=O)c2ccccc2)cc1S(=O)(=O)N1CCCC1 [Compound 1i],,,2.07 ± 0.22 µM,2.07 µM,4.4,9.18 ± 1.51 µM
